Source: patent publication US9051300B2, “Herbicides” (Syngenta Limited, priority 2009, dated 2015)

Experiments:
Assay type in all cases: in vivo
[1] = system: Winter Wheat variety 'Hereward'; experiment: Crop damage to winter wheat seed treated with safener cloquintocet mexyl, post-emergence spray; conditions: 250 g/ha, seed treated with cloquintocet mexyl 0.5 g/kg seed, evaluated after 13 days, 100=total damage, 0=no damage
Protocol: Seeds of the Winter Wheat variety ‘Hereward’ were seed treated with a wettable powder formulation of the cereal herbicide safener, cloquintocet mexyl, at a rate of 0.5 grams per kilogram of dry seed prior to the initiation of glasshouse testing. One seed was sown per 1.5 inch plastic pot into a sandy loam soil at a depth of 1 cm, 8 days prior to application of the test compounds and was watered and grown under controlled conditions in a glasshouse (at 24/16° C., day/night; 14 hours light; 65% humidity). The plants were sprayed post-emergence with an aqueous spray solution derived from the formulation of the technical active ingredient in acetone/water (50:50) solution containing 0.5% Tween 20 (polyoxyethylene sorbitan monolaurate, CAS RN 9005-64-5). The test plants were then grown in a glasshouse under controlled conditions in a glasshouse (at 24/16° C., day/night; 14 hours light; 65% humidity) and watered twice daily. After 13 days for pre and post-emergence, the test was evaluated (100=total damage to plant; 0=no damage to plant).

[2] = system: Winter Wheat variety 'Hereward'; experiment: Crop damage to winter wheat, post-emergence spray; conditions: 250 g/ha, no safener, evaluated after 13 days, 100=total damage to plant, 0=no damage
Protocol: Seeds of the Winter Wheat variety ‘Hereward’ were sown in standard soil in pots. After 8 days cultivation under controlled conditions in a glasshouse (at 24/16° C., day/night; 14 hours light; 65% humidity), the plants were sprayed post-emergence with an aqueous spray solution derived from the formulation of the technical active ingredient in acetone/water (50:50) solution containing 0.5% Tween 20 (polyoxyethylene sorbitan monolaurate, CAS RN 9005-64-5). The test plants were then grown in a glasshouse under controlled conditions in a glasshouse (at 24/16° C., day/night; 14 hours light; 65% humidity) and watered twice daily. After 13 days for pre and post-emergence, the test was evaluated (100=total damage to plant; 0=no damage to plant).

[3] = system: Lolium perenne (LOLPE); experiment: Pre-emergence herbicidal activity, glasshouse pot test; conditions: rate not printed (columns shifted), evaluated after 13 days, 100=total damage to plant, 0=no damage
Protocol: (§1) Seeds of a variety of test species are sown in standard soil in pots. After cultivation for one day (pre-emergence) or after 8 days cultivation (post-emergence) under controlled conditions in a glasshouse (at 24/16° C., day/night; 14 hours light; 65% humidity), the plants are sprayed with an aqueous spray solution derived from the formulation of the technical active ingredient in acetone/water (50:50) solution containing 0.5% Tween 20 (polyoxyethylene sorbitan monolaurate, CAS RN 9005-64-5). The test plants are then grown in a glasshouse under controlled conditions in a glasshouse (at 24/16° C., day/night; 14 hours light; 65% humidity) and watered twice daily. After 13 days for pre and post-emergence, the test is evaluated (100=total damage to plant; 0=no damage to plant). Lolium perenne (LOLPE), Alopecurus myosuroides (ALOMY), Echinochloa crus-galli (ECHCG), Avena fatua (AVEFA) Pre-Emergence Activity

[4] = system: Avena fatua (AVEFA); experiment: as above; conditions: rate not printed (columns shifted), evaluated after 13 days, 100=total damage to plant, 0=no damage
Protocol: as §1

[5] = system: Alopecurus myosuroides (ALOMY); experiment: as above; conditions: rate not printed (columns shifted), evaluated after 13 days, 100=total damage to plant, 0=no damage
Protocol: as §1

[6] = system: Echinochloa crus-galli (ECHCG); experiment: as above; conditions: rate not printed (columns shifted), evaluated after 13 days, 100=total damage to plant, 0=no damage
Protocol: as §1

[7] = system: Lolium perenne (LOLPE); experiment: Post-emergence herbicidal activity, glasshouse pot test; conditions: 312 h, evaluated after 13 days, 100=total damage to plant, 0=no damage
Protocol: as §1, with “Post-Emergence” for “Pre-Emergence”

[8] = system: Avena fatua (AVEFA); experiment: as above; conditions: 312 h, evaluated after 13 days, 100=total damage to plant, 0=no damage
Protocol: as §1, with “Post-Emergence” for “Pre-Emergence”

[9] = system: Alopecurus myosuroides (ALOMY); experiment: as above; conditions: 312 h, evaluated after 13 days, 100=total damage to plant, 0=no damage
Protocol: as §1, with “Post-Emergence” for “Pre-Emergence”

[10] = system: Echinochloa crus-galli (ECHCG); experiment: as above; conditions: 312 h, evaluated after 13 days, 100=total damage to plant, 0=no damage
Protocol: as §1, with “Post-Emergence” for “Pre-Emergence”

Cc1sc(-c2ccc(C(C)C)cc2)nc1C1C(=O)C/C(=C\C2CCOCC2)C1=O (centres unmarked) [Compound A1]
Winter Wheat (Hereward) + cloquintocet mexyl (damage to plant) [1]: 0
Winter Wheat (Hereward) (damage to plant) [2]: 20
Pre-Emergence Activity LOLPE (damage to plant) [3]: 10
Pre-Emergence Activity AVEFA (damage to plant) [4]: 0
Pre-Emergence Activity ALOMY (damage to plant) [5]: 10
Pre-Emergence Activity ECHCG (damage to plant) [6]: 50
pest or weed control at 250 g/ha [7]: 0%
pest or weed control at 250 g/ha [8]: 0%
pest or weed control at 250 g/ha [9]: 10%
pest or weed control at 250 g/ha [10]: 10%

Cc1sc(COc2ccc(Cl)cc2)nc1C1C(=O)CC(CC2CCOCC2)C1=O (centres unmarked) [Compound A2]
pest or weed control at 250 g/ha [7]: 10%
pest or weed control at 250 g/ha [8]: 0%
pest or weed control at 250 g/ha [9]: 10%
pest or weed control at 250 g/ha [10]: 20%

Cc1sc(COc2ccc(Cl)cc2)nc1C1C(=O)C/C(=C\C2CCOCC2)C1=O (centres unmarked) [Compound A3]
pest or weed control at 250 g/ha [7]: 0%
pest or weed control at 250 g/ha [8]: 0%
pest or weed control at 250 g/ha [9]: 10%
pest or weed control at 250 g/ha [10]: 20%

Cc1sc(-c2ccc(Br)cn2)nc1C1C(=O)C/C(=C\C2CCOCC2)C1=O (centres unmarked) [Compound A4]
pest or weed control at 250 g/ha [7]: 0%
pest or weed control at 250 g/ha [8]: 0%
pest or weed control at 250 g/ha [9]: 20%
pest or weed control at 250 g/ha [10]: 70%

Cc1sc(-c2ccc(Cl)cc2)cc1C1C(=O)CC(CC2CCOC2)C1=O (centres unmarked) [Compound A5]
pest or weed control at 250 g/ha [7]: 30%
pest or weed control at 250 g/ha [8]: 50%
pest or weed control at 250 g/ha [9]: 50%
pest or weed control at 250 g/ha [10]: 80%

Cc1sc(-c2ccc(Cl)cc2)cc1C1C(=O)CC(CC2CCOCC2)C1=O (centres unmarked) [Compound A6]
Winter Wheat (Hereward) + cloquintocet mexyl (damage to plant) [1]: 0
Winter Wheat (Hereward) (damage to plant) [2]: 10
pest or weed control at 250 g/ha [7]: 0%
pest or weed control at 250 g/ha [8]: 0%
pest or weed control at 250 g/ha [9]: 50%
pest or weed control at 250 g/ha [10]: 60%

CCc1sc(-c2ccc(Cl)cc2)nc1C1C(=O)C/C(=C\C2CCOCC2)C1=O (centres unmarked) [Compound A7]
Winter Wheat (Hereward) + cloquintocet mexyl (damage to plant) [1]: 40
Winter Wheat (Hereward) (damage to plant) [2]: 90
Pre-Emergence Activity LOLPE (damage to plant) [3]: 80
Pre-Emergence Activity AVEFA (damage to plant) [4]: 70
Pre-Emergence Activity ALOMY (damage to plant) [5]: 70
Pre-Emergence Activity ECHCG (damage to plant) [6]: 100
pest or weed control at 250 g/ha [7]: 60%
pest or weed control at 250 g/ha [8]: 100%
pest or weed control at 250 g/ha [9]: 90%
pest or weed control at 250 g/ha [10]: 100%

Cc1cnc(-c2ccc(Cl)cc2)nc1C1C(=O)CC(CC2CCOCC2)C1=O (centres unmarked) [Compound A8]
Winter Wheat (Hereward) + cloquintocet mexyl (damage to plant) [1]: 0
Winter Wheat (Hereward) (damage to plant) [2]: 20
Pre-Emergence Activity LOLPE (damage to plant) [3]: 80
Pre-Emergence Activity AVEFA (damage to plant) [4]: 60
Pre-Emergence Activity ALOMY (damage to plant) [5]: 50
Pre-Emergence Activity ECHCG (damage to plant) [6]: 100
pest or weed control at 250 g/ha [7]: 50%
pest or weed control at 250 g/ha [8]: 50%
pest or weed control at 250 g/ha [9]: 50%
pest or weed control at 250 g/ha [10]: 90%

Cc1sc(-c2ccc(Cl)cc2)cc1C1C(=O)C/C(=C\C2CCOCC2)C1=O (centres unmarked) [Compound A10]
pest or weed control at 250 g/ha [7]: 10%
pest or weed control at 250 g/ha [8]: 0%
pest or weed control at 250 g/ha [9]: 20%
pest or weed control at 250 g/ha [10]: 70%

Cc1sc(-c2ccc(Cl)cc2)nc1C1C(=O)C/C(=C\c2ccoc2)C1=O (centres unmarked) [Compound A11]
pest or weed control at 250 g/ha [7]: 0%
pest or weed control at 250 g/ha [8]: 0%
pest or weed control at 250 g/ha [9]: 10%
pest or weed control at 250 g/ha [10]: 80%

Cc1sc(-c2ccc(Cl)cc2)nc1C1C(=O)C/C(=C\c2ccc(F)cn2)C1=O (centres unmarked) [Compound A13]
pest or weed control at 250 g/ha [7]: 0%
pest or weed control at 250 g/ha [8]: 10%
pest or weed control at 250 g/ha [9]: 10%
pest or weed control at 250 g/ha [10]: 20%

Cc1sc(-c2ccc(Cl)cc2)nc1C1C(=O)C/C(=C/c2ccccn2)C1=O (centres unmarked) [Compound A15]
Winter Wheat (Hereward) + cloquintocet mexyl (damage to plant) [1]: 0
Winter Wheat (Hereward) (damage to plant) [2]: 10
pest or weed control at 250 g/ha [7]: 0%
pest or weed control at 250 g/ha [8]: 0%
pest or weed control at 250 g/ha [9]: 10%
pest or weed control at 250 g/ha [10]: 20%

Cc1ccc2c(cnn2C)c1C1C(=O)CC(CC2CCOCC2)C1=O (centres unmarked) [Compound A19]
pest or weed control at 250 g/ha [7]: 0%
pest or weed control at 250 g/ha [8]: 10%
pest or weed control at 250 g/ha [9]: 20%
pest or weed control at 250 g/ha [10]: 40%
